Legend:
[1] = target: IDH1R132C (Homo sapiens (Human), UniProt O75874, R132C); assay: Inhibitory activity against IDH1R132C enzyme (NADPH detection, WST-8); format: biochemical; details: 10 nM, residual NADPH detected with WST-8, read-out: Test Example 1 IDH1 R132C IC50
[2] = tested on: HT-1080 cells expressing IDH1R132C; assay: 2-HG production inhibitory activity using HT1080 cell; format: cell-based, human; details: Homo sapiens, HT-1080; 2-HG production, HT1080 cells; read-out: Test Example 3 IC50
Experimental: Then, 100 μL of growth medium B was added to each well, further 25 μL of a solution of each compound diluted to a predetermined concentration with growth medium B was added to each well, and the cells were incubated at 37° C. for 2 days under 5% CO2. […] Then, 150 μL of ultrapure water was further added to each well, and the mixture was stirred by pipetting and stored at −20° C.
The preserved solutions were thawed at room temperature.

[3] = tested on: HT1080 xenografted mice (IDH1R132C); assay: 2-HG production inhibitory activity using HT1080 xenografted mice; format: in vivo, mouse; details: Mus musculus, HT-1080, po, 6 h, 2-HG production, HT1080 xenografted mice; read-out: Test Example 5 Ratio (%)
Procedure, shortened: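 Mice bearing HT1080 tumors received 75 mg/kg compound by oral gavage twice a day, three doses in total, at 10 mL/kg; vehicle-dosed mice were negative controls. Tumors were collected 6 h after the final dose, frozen, homogenized in methanol and centrifuged, and 2-HG was measured in the extracts.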

Chain of IDH1R132C (O75874 whole entry R132C): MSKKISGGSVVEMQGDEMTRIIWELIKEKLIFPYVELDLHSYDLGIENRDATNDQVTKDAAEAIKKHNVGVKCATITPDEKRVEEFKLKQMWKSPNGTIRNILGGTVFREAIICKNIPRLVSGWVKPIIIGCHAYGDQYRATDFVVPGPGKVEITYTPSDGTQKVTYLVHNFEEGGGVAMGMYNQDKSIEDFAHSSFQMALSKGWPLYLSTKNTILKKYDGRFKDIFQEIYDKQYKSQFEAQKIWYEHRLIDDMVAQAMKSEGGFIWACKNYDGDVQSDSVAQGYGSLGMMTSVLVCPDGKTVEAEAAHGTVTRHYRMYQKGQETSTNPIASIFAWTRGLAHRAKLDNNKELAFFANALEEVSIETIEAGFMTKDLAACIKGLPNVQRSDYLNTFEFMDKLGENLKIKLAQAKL

Compound | IC50 [1] [nM] | IC50 [2] [nM] | response vs control in vivo at 75 mg/kg [3] [%]
CC(C)(F)c1onc(-c2c(Cl)cc(Cl)cc2Cl)c1C(=O)n1cc(Cl)c2c(/C=C/C(=O)O)cccc21 [Example 66, (2E)-3-(3-Chloro-1-{[5-(2-fluoropropan-2-yl)-3-(2,4,6-trichlorophenyl)-1,2-oxazol-4-yl]carbonyl}-1H-indol-4-yl)prop-2-enoic acid] | 122 | 59 | 49
Cc1cn(C(=O)c2c(-c3c(Cl)cc(Cl)cc3Cl)noc2C2(C)COC2)c2cccc(/C=C/C(=O)O)c12 [Example 2, (2E)-3-(3-Methyl-1-{[5-(3-methyloxetan-3-yl)-3-(2,4,6-trichlorophenyl)-1,2-oxazol-4-yl]carbonyl}-1H-indol-4-yl)prop-2-enoic acid] | 47 | 18 | 18
CC(C)(C)c1onc(-c2c(Cl)cc(Cl)cc2Cl)c1C(=O)n1cc(F)c2c(/C=C/C(=O)O)cccc21 [Example 40, (2E)-3-(1-{[5-(tert-Butyl)-3-(2,4,6-trichlorophenyl)-1,2-oxazol-4-yl]carbonyl}-3-fluoro-1H-indol-4-yl)prop-2-enoic acid] | 159 | 57 | 18
C=CC(=O)N1CCN(c2onc(-c3c(Cl)cc(Cl)cc3Cl)c2C(=O)n2ccc3c(/C=C/C(=O)O)cccc32)C2(CC2)C1 [Example 150, (2E)-3-(1-{[5-[7-Acryloyl-4,7-diazaspiro[2.5]oct-4-yl]-3-(2,4,6-trichlorophenyl)-1,2-oxazol-4-yl]carbonyl}-1H-indol-4-yl)prop-2-enoic acid] | 98 | 41 | 18
CNC1(c2onc(-c3c(Cl)cc(Cl)cc3Cl)c2C(=O)n2cc(C)c3c(/C=C/C(=O)O)cccc32)CCC1 [Example 83, (2E)-3-(3-Methyl-1-{[5-[1-(methylamino)cyclobutyl]-3-(2,4,6-trichlorophenyl)-1,2-oxazol-4-yl]carbonyl}-1H-indol-4-yl)prop-2-enoic acid] | 87 | 33 | 23
C=CC(=O)N1CCN(c2onc(-c3c(Cl)cccc3Cl)c2C(=O)n2ccc3c(/C=C/C(=O)O)cccc32)[C@H](C)C1 [Example 141, (2E)-3-[1-({5-[(2R)-4-Acryloyl-2-methylpiperazin-1-yl]-3-(2,6-dichlorophenyl)-1,2-oxazol-4-yl}carbonyl)-1H-indol-4-yl]prop-2-enoic acid] | 137 | 190 | 36
CC1(c2onc(-c3c(Cl)cc(Cl)cc3Cl)c2C(=O)n2ccc3c(/C=C/C(=O)O)cccc32)CC1 [Example 37, (2E)-3-(1-{[5-(1-Methylcyclopropyl)-3-(2,4,6-trichlorophenyl)-1,2-oxazol-4-yl]carbonyl}-1H-indol-4-yl)prop-2-enoic acid] | 117 | 149 | 35
CC(C)(C)c1onc(-c2c(Cl)cc(Cl)cc2Cl)c1C(=O)n1cc(C(F)F)c2c(/C=C/C(=O)O)cccc21 [Example 72, (2E)-3-(1-{[5-(tert-Butyl)-3-(2,4,6-trichlorophenyl)-1,2-oxazol-4-yl]carbonyl}-3-(difluoromethyl)-1H-indol-4-yl)prop-2-enoic acid] | 201 | 59 | 46
C=CC(=O)N1CCC(c2onc(-c3c(Cl)cc(Cl)cc3Cl)c2C(=O)n2cc(C)c3c(CCC(=O)O)cccc32)CC1 [Example 115] | 301 | 32 | 12
Cc1cn(C(=O)c2c(-c3c(Cl)cc(Cl)cc3Cl)noc2C(C)C)c2cccc(/C=C/C(=O)O)c12 [Example 29, (2E)-3-(1-{[5-(Propan-2-yl)-3-(2,4,6-trichlorophenyl)-1,2-oxazol-4-yl]carbonyl}-3-methyl-1H-indol-4-yl)prop-2-enoic acid] | 102 | 94 | 39
C=CC(=O)N1CCC(c2onc(-c3c(Cl)cccc3Cl)c2C(=O)n2cc(C)c3c(/C=C/C(=O)O)cccc32)CC1 [Example 108] | 149 | 38 | 58
COC1(c2onc(-c3c(Cl)cc(Cl)cc3Cl)c2C(=O)n2cc(C)c3c(/C=C/C(=O)O)cccc32)CCC1 [Example 79, (2E)-3-(1-{[5-(1-Methoxycyclobutyl)-3-(2,4,6-trichlorophenyl)-1,2-oxazol-4-yl]carbonyl}-3-methyl-1H-indol-4-yl)prop-2-enoic acid] | 161 | 35 | 15
C=CC(=O)N1CCC(c2onc(-c3c(Cl)cc(Cl)cc3Cl)c2C(=O)c2cn(C)c3c(/C=C/C(=O)O)cccc23)CC1 [Example 166, (2E)-3-(3-{[5-(1-Acryloylpiperidin-4-yl)-3-(2,4,6-trichlorophenyl)-1,2-oxazol-4-yl]carbonyl}-1-methyl-1H-indol-7-yl)prop-2-enoic acid] | 141 | 299 | 81
C=CC(=O)N1CCN(c2onc(-c3c(Cl)cccc3Cl)c2C(=O)n2ccc3c(/C=C/C(=O)O)cccc32)[C@H](C2CC2)C1 [Example 154, (2E)-3-[1-({5-[(2R)-4-Acryloyl-2-cyclopropylpiperazin-1-yl]-3-(2,6-dichlorophenyl)-1,2-oxazol-4-yl}carbonyl)-1H-indol-4-yl]prop-2-enoic acid] | 235 | 294 | 45
C=CS(=O)(=O)N1CCN(c2onc(-c3c(Cl)cccc3Cl)c2C(=O)n2ccc3c(/C=C/C(=O)O)cccc32)CC1 [Example 149, (2E)-3-[1-({3-(2,6-Dichlorophenyl)-5-[4-(ethenylsulfonyl)piperazin-1-yl]-1,2-oxazol-4-yl}carbonyl)-1H-indol-4-yl]prop-2-enoic acid] | 132 | 278 | 96
C=CC(=O)N1CCC(c2onc(-c3c(Cl)cc(F)cc3Cl)c2C(=O)n2cc(C)c3c(/C=C/C(=O)O)cccc32)CC1 [Example 112] | 115 | 12 | 15
Cc1cn(C(=O)c2c(-c3c(Cl)cc(Cl)cc3Cl)noc2C2(N(C)C)CCC2)c2cccc(/C=C/C(=O)O)c12 [Example 81, (2E)-3-(1-{[5-[1-(Dimethylamino)cyclobutyl]-3-(2,4,6-trichlorophenyl)-1,2-oxazol-4-yl]carbonyl}-3-methyl-1H-indol-4-yl)prop-2-enoic acid] | 163 | 31 | 15
Cc1cn(C(=O)c2c(-c3c(Cl)cc(C4CC4)cc3Cl)noc2C(C)(C)F)c2cccc(/C=C/C(=O)O)c12 [Example 70, (2E)-3-(1-{[3-(2,6-Dichloro-4-cyclopropylphenyl)-5-(2-fluoropropan-2-yl)-1,2-oxazol-4-yl]carbonyl}-3-methyl-1H-indol-4-yl)prop-2-enoic acid] | 153 | 71 | 41
Cn1cc(C(=O)c2c(-c3c(Cl)cc(Cl)cc3Cl)noc2C(C)(C)C)c2ccc3ccc(C(=O)O)cc3c21 [Example 167, 3-{[5-tert-Butyl-3-(2,4,6-trichlorophenyl)-1,2-oxazol-4-yl]carbonyl}-1-methyl-1H-benzo[g]indole-8-carboxylic acid] | 196 | 195 | 87
Cc1cc(Cl)c(-c2noc(C(C)(C)F)c2C(=O)n2cc(C)c3c(/C=C/C(=O)O)cccc32)c(Cl)c1 [Example 56, (2E)-3-(1-{[3-(2,6-Dichloro-4-methylphenyl)-5-(2-fluoropropan-2-yl)-1,2-oxazol-4-yl]carbonyl}-3-methyl-1H-indol-4-yl)prop-2-enoic acid] | 107 | 52 | 28
C=CS(=O)(=O)N1CCC(c2onc(-c3c(Cl)cc(Cl)cc3Cl)c2C(=O)n2ccc3c(/C=C/C(=O)O)cccc32)CC1 [Example 103] | 114 | 506 | 90
C=CC(=O)N1CCC(COC)(c2onc(-c3c(Cl)cc(Cl)cc3Cl)c2C(=O)n2ccc3c(/C=C/C(=O)O)cccc32)CC1 [Example 120] | 357 | 51 | 31
C=CC(=O)N1CCC(c2onc(-c3cc(F)c(Cl)cc3Cl)c2C(=O)n2cc(C)c3c(/C=C/C(=O)O)cccc32)CC1 [Example 121] | 110 | 8 | 8
C=CC(=O)N1C[C@@H](C)N(c2onc(-c3c(Cl)cccc3Cl)c2C(=O)n2ccc3c(/C=C/C(=O)O)cccc32)[C@@H](C)C1 [Example 144, (2E)-3-(1-{[5-(4-Acryloyl-cis-2,6-dimethylpiperazin-1-yl)-3-(2,6-dichlorophenyl)-1,2-oxazol-4-yl]carbonyl}-1H-indol-4-yl)prop-2-enoic acid] | 151 | 107 | 34
C=CC(=O)N1CCC(c2onc(-c3c(C)cc(Cl)cc3C)c2C(=O)n2ccc3c(/C=C/C(=O)O)cccc32)CC1 [Example 110] | 316 | 48 | 52
C=CC(=O)N1CCC(c2onc(-c3c(Cl)cc(Cl)cc3Cl)c2C(=O)n2ccc3c(/C=C/C(=O)O)cccc32)CC1 [Example 99] | 272 | 34 | 15
